Assay results published in ChEMBL document CHEMBL4177545, “Potential Antiosteoporotic Natural Product Lead Compounds That Inhibit 17β-Hydroxysteroid Dehydrogenase Type 2” (J Nat Prod, 2017).

Columns and labels:
[1] = target: T1, 17-beta-hydroxysteroid dehydrogenase type 1 (Homo sapiens, UniProt P14061); assay: Inhibition of human 17beta-HSD1 expressed in HEK293 cell lysates incubated for 10 mins using [2,4,6,7-3H]-estrone and NADPH by scintillation counting method
T1 sequence (P14061 whole entry): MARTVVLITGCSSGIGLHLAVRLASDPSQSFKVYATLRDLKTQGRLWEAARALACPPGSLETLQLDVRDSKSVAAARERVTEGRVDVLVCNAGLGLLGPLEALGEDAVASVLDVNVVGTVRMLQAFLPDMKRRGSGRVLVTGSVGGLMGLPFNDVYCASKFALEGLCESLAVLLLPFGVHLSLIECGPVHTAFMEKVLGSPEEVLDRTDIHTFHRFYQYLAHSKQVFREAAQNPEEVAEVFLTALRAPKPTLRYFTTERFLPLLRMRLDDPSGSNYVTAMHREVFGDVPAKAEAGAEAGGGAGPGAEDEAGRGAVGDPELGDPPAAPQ

Homo sapiens = organism: Homo sapiens; assay: Selectivity index, ratio of inhibition of human 17beta-HSD1 expressed in HEK293 cell lysates to inhibition of human 17beta-HSD2 expressed in HEK293 cell lysates
Estrogen receptor beta = Estrogen receptor beta (Homo sapiens, UniProt Q92731); assay: Displacement of estradiol from human ERbetaa expressed in yeast cells; format: cell-based
Estrogen receptor = target: T2, Estrogen receptor (Homo sapiens, UniProt P03372); assay: Displacement of estradiol from human ERalpha expressed in yeast cells; format: cell-based
T2 sequence (P03372 whole entry): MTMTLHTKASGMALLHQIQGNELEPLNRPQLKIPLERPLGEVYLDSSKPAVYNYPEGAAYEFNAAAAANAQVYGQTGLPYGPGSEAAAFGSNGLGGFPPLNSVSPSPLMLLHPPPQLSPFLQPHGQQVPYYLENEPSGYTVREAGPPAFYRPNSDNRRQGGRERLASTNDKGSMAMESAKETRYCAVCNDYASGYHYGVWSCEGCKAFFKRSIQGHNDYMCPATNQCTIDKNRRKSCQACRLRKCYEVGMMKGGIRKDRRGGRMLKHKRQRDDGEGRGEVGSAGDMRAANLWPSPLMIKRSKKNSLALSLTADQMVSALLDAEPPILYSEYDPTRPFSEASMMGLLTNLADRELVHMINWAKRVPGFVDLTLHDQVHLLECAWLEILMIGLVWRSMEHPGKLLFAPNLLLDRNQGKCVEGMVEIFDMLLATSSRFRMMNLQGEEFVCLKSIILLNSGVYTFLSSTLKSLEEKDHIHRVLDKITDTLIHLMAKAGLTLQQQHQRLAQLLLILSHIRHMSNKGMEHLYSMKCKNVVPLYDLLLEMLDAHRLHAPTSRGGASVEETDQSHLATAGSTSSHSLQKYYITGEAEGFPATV

Aromatase = target: T3, Aromatase (Homo sapiens, UniProt P11511); assay: Inhibition of aromatase (unknown origin)
T3 sequence (P11511 whole entry): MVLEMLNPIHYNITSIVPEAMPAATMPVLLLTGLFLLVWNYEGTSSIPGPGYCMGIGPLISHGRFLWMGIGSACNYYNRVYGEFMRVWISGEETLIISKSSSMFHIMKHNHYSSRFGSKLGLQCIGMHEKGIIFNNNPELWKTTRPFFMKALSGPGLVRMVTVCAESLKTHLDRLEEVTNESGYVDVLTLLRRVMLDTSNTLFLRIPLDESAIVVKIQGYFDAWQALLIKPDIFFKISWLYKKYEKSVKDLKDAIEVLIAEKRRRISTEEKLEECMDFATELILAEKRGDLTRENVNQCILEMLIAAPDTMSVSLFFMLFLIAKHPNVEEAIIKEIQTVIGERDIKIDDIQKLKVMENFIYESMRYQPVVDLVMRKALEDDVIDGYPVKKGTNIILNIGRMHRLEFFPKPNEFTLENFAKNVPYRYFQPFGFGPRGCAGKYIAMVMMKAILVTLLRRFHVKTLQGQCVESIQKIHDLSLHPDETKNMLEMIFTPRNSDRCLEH

Chain of Estrogen receptor beta (Q92731 whole entry): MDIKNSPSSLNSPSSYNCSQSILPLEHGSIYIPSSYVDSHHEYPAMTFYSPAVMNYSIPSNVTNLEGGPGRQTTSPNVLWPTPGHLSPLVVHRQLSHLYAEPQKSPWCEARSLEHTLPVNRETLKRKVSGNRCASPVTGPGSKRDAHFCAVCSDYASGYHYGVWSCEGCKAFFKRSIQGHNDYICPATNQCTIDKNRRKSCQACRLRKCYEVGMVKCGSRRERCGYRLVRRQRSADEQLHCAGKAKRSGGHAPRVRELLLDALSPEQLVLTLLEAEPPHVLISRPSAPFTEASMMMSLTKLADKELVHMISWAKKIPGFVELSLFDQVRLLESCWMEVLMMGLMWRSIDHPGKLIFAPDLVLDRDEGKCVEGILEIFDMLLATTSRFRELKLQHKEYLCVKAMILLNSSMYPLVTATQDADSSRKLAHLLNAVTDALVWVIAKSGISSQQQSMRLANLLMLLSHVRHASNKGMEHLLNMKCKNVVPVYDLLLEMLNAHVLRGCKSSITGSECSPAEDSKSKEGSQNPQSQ

Row | SMILES | IC50 [1] | also measured
1 | CCOC(=O)c1ccc(O)c(OC)c1 | Not Active | 
2 | COc1cc(/C=C/C(=O)CC(=O)/C=C/c2ccc(O)c(OC)c2)ccc1O |  | Selectivity Index (Homo sapiens): 12
3 | O=C(/C=C/c1ccc(O)cc1)c1ccc(O)cc1O [ISOLIQUIRITIGENIN] |  | IC50 (Estrogen receptor beta): 0.269 µM; IC50 (Estrogen receptor): 1.87 µM; IC50 (Aromatase): 3.8 µM
4 | O=C(Cc1ccc(O)c(Cl)c1)NCCc1c[nH]c2ccccc12 | Not Active | 
5 | O=C(Cc1ccc(O)c(Cl)c1)NCc1ccccc1Cl |  | Selectivity Index (Homo sapiens): 25
6 | O=C(Cc1ccc(O)c(Cl)c1)NCCc1ccccc1 | Not Active | 
7 | O=C(/C=C/c1ccc(O)c(O)c1)O[C@H](Cc1ccc(O)c(O)c1)C(=O)O [ROSMARINIC ACID] | Not Active | 
8 | O=C(Cc1ccc(O)c(Cl)c1)NCc1ccccc1 | Not Active | 
